Assay: xn = mol fraction of the nth substance listed
Settings: 100 kPa

CC#N + C=C[n+]1ccn(CC(N)=O)c1.O=S(=O)([N-]S(=O)(=O)C(F)(F)F)C(F)(F)F
x2 = 0
Settings	viscosity [mPa·s]
298.15 K	0.344
303.15 K	0.324
308.15 K	0.308
313.15 K	0.293
318.15 K	0.277
328.15 K	0.246
333.15 K	0.219

C=C[n+]1ccn(CC(N)=O)c1.O=S(=O)([N-]S(=O)(=O)C(F)(F)F)C(F)(F)F + CC#N
Settings	electrical conductivity [S/m]	viscosity [mPa·s]
298.15 K, x1 = 0.02	2.52	–
298.15 K, x1 = 0.047	3.16	–
298.15 K, x1 = 0.05	–	2.88
298.15 K, x1 = 0.07	3.32	–
298.15 K, x1 = 0.08	3.26	–
298.15 K, x1 = 0.1	3.06	10.3
298.15 K, x1 = 0.2	1.6	–
298.15 K, x1 = 0.201	–	75
298.15 K, x1 = 0.3026	–	276
298.15 K, x1 = 0.393	0.39	–
298.15 K, x1 = 0.4011	–	810
298.15 K, x1 = 1	0.01	281
303.15 K, x1 = 0.01	1.34	0.64
303.15 K, x1 = 0.02	2.64	–
303.15 K, x1 = 0.047	3.32	–
303.15 K, x1 = 0.05	–	2.84
303.15 K, x1 = 0.08	3.47	–
303.15 K, x1 = 0.3026	–	247
303.15 K, x1 = 1	0.02	140
308.15 K, x1 = 0.047	3.52	–
308.15 K, x1 = 0.05	–	2.71
308.15 K, x1 = 0.07	3.74	–
308.15 K, x1 = 0.08	3.72	–
308.15 K, x1 = 0.1	3.53	9.2
308.15 K, x1 = 0.2	1.98	–
308.15 K, x1 = 0.3026	–	202
308.15 K, x1 = 0.393	0.6	–
308.15 K, x1 = 0.4011	–	550
313.15 K, x1 = 0.01	1.47	0.57
313.15 K, x1 = 0.02	2.9	–
313.15 K, x1 = 0.047	3.7	–
313.15 K, x1 = 0.05	–	2.49
313.15 K, x1 = 0.07	3.96	–
313.15 K, x1 = 0.08	3.95	–
313.15 K, x1 = 0.2	2.19	–
313.15 K, x1 = 0.201	–	51
313.15 K, x1 = 0.3026	–	163
313.15 K, x1 = 0.393	0.73	–
313.15 K, x1 = 1	0.05	35.3
318.15 K, x1 = 0.02	3.01	–
318.15 K, x1 = 0.05	–	2.39
318.15 K, x1 = 0.07	4.16	–
318.15 K, x1 = 0.08	4.17	–
318.15 K, x1 = 0.1	4.02	7.7
318.15 K, x1 = 0.201	–	45.9
318.15 K, x1 = 0.3026	–	142
318.15 K, x1 = 0.393	0.86	–
318.15 K, x1 = 0.4011	–	352
318.15 K, x1 = 1	0.07	19.8
323.15 K, x1 = 0.01	1.58	0.52
323.15 K, x1 = 0.02	3.13	–
323.15 K, x1 = 0.047	4.03	–
323.15 K, x1 = 0.05	–	2.26
323.15 K, x1 = 0.07	4.36	–
323.15 K, x1 = 0.1	4.25	7
323.15 K, x1 = 0.201	–	40.2
323.15 K, x1 = 0.393	1	–
323.15 K, x1 = 0.4011	–	288
328.15 K, x1 = 0.01	1.65	0.48
328.15 K, x1 = 0.02	3.25	–
328.15 K, x1 = 0.047	4.19	–
328.15 K, x1 = 0.05	–	2.17
328.15 K, x1 = 0.08	4.61	–
328.15 K, x1 = 0.2	2.8	–
328.15 K, x1 = 0.201	–	36.8
328.15 K, x1 = 0.3026	–	105
328.15 K, x1 = 0.393	1.16	–
333.15 K, x1 = 0.01	1.69	0.47
333.15 K, x1 = 0.02	3.35	–
333.15 K, x1 = 0.05	–	2.01
333.15 K, x1 = 0.07	4.79	–
333.15 K, x1 = 0.08	4.77	–
333.15 K, x1 = 0.1	4.72	6.1
333.15 K, x1 = 0.2	3	–
333.15 K, x1 = 0.3026	–	90
333.15 K, x1 = 0.393	1.33	–
333.15 K, x1 = 0.4011	–	193
333.15 K, x1 = 1	0.2	6.2

O=S(=O)([N-]S(=O)(=O)C(F)(F)F)C(F)(F)F.[Li+] + CC#N
electrical conductivity [S/m]
Settings	298.15 K	303.15 K	308.15 K	313.15 K	318.15 K	323.15 K	328.15 K	333.15 K
x1 = 0.0207	2.67	–	2.91	–	3.14	3.24	3.34	3.47
x1 = 0.0307	3.11	–	–	3.47	3.58	3.7	3.81	3.92
x1 = 0.0405	3.53	3.68	–	4.01	–	4.29	4.43	4.57
x1 = 0.0501	3.93	4.1	–	4.47	–	4.81	–	5.16
x1 = 0.0596	4.07	4.25	4.45	4.63	4.8	–	–	–
x1 = 0.0688	3.93	4.12	4.33	4.53	4.7	4.87	5.05	5.24
x1 = 0.0779	3.82	4.01	–	–	4.52	4.74	4.95	5.17
x1 = 0.0868	3.65	3.84	4.05	4.26	4.45	4.63	4.82	4.99

Reference: a compilation of properties of binary mixtures (doi:10.1021/acs.jced.9b00648)
